Assay type in all cases: cell-based
The subject of series [1] is Saos-2 osteosarcoma cells expressing GFP-LC3. Nature of the series: Autophagy response by punctate localization of GFP-LC3 to autophagic vacuoles, fluorescence microscopy. Particulars: for Activate Autophagy Response: Table 1; for Enhancement of autophagy (GFP-LC3 at autophagic vacuoles) / Stimulation of autophagy compared with amino acid and serum starved cells (FIG. 2G): enriched (Fed) medium; for Stimulation of autophagy compared with amino acid and serum starved cells (FIG. 2G): 100 μM; for Induction of autophagy: Table 2. On the procedure:
FIGS. 2A-2G. Activation of autophagy by Bcl-XL targeting compounds. The positions of C2 in Site 1 (FIG. 2A), C5 in Site 1 (FIG. 2B), and C8 in Site 2 (FIG. 2C) of Bcl-xl are shown by in silico molecular docking. Saos-2 osteosarcoma cells expressing GFP-LC3 were incubated in enriched (Fed) medium in the presence of C2 (FIG. 2D), C5 (FIG. 2E) and C8 (FIG. 2F) Bcl-targeted compounds. GFP-LC3 is found diffuse throughout the cytosol and nucleus when autophagy is suppressed. Ongoing autophagy can be visualized by the presence of GFP-LC3 at autophagic vacuoles (AVs) that appear as dots (arrows). […] In FIG. 2E, Saos-2 osteosarcoma cells expressing GFP-LC3 were incubated in enriched (Fed) medium in the absence and presence of Bcl-targeted compounds or in medium lacking amino acids and serum (Starved).
FIG. 4A-4F. Activation of autophagy by Bcl-targeted compounds. The localization of GFP-LC3 to autophagic vacuoles was enhanced by […] Bcl-targeted compounds in Saos-2 osteosarcoma cells. The autophagy response in fed Saos2 cells was measured in the absence and presence of anti-Bcl compounds by visualizing the punctate localization of GFP-LC3 (FIGS. 4A-4C) and RFP-GFP-LC3 (FIGS. 4D-4F) to autophagic vacuoles. In untreated fed cells, the GFP-LC3 is localized uniformly throughout the cell. […] Autophagy in cells expressing RFP-GFP-LC3 (FIGS. 4D-4F) was activated with compound B2-1. Structures containing RFP (red, FIG. 4D) and GFP (green, FIG. 4E) are autophagosomes (arrow), while RFP (red, FIG. 4D) structures are autolysosomes (arrowhead).
(§1) FIGS. 5A-5C. Characterization of proBeclin 1 compounds. Upon ranking 100 NCl compounds by in silico docking to Bcl-xl, the autophagy responses were evaluated in fed Saos-2 cells expressing GFP-LC3 (FIG. 5A). […] Cells were maintained in nutrient-rich medium in the absence and presence of Bcl-targeted compounds for 4 hr. The cells were then solubilized, Beclin 1 complex immunoprecipitated, and the Beclin 1 hound proteins identified by Western blotting (FIG. 5C). The IgG-LC is the immunoglobin light chain of the anti-Beclin 1 antibody that was used to immunoprecipitate the complex. The absence of Bcl-xl is indicative of an inhibition of Beclin 1 binding.
This was done in Saos-2 osteosarcoma cells stably expressing the autophagosome marker, GFP-LC3. In fed cells not undergoing autophagy GFP-LC3 is a soluble protein found throughout the cytosol. In amino acid and serum starved cells, autophagy is activated and GFP-LC3 becomes associated with autophagic vacuoles that can be visualize by fluorescence microscopy.
(§2) When autophagy is suppressed, GFP-LC3 distributes uniformly throughout the cellular cytoplasm (FIG. 4A). Autophagy response can be observed by visualizing the punctuate pattern of GFP-LC3 indicative of the presence of autophagic vacuoles. We can also use tandem-labeled LC3, RFP-GFP-LC3 to better assess the dynamics of the autophagy response by visualizing both autophagosomes and autolysosomes (FIG. 4D-4F). […] To further substantiate that the accumulation of GFP-LC3 structures is not due to a blockage of basal autophagy but the positive effects of the compounds on the autophagy response, the autophagy response is validated by quantitative protein turnover measures using radiolabeled amino acids (FIG. 5B). Finally, we determine whether the compound interferes with Beclin 1 binding to Bcl-xl (FIG. 5C) and Bcl-2 as we would suspect if the compound acts through the intended novel mechanism of action.

A further series concerns Beclin 1/Bcl binding. The series is described as follows: Beclin 1/Bcl binding by immunoprecipitation with anti-Beclin 1 antibodies and Western blotting. Particulars: for Inhibit Beclin 1 Binding: Table 1; for Beclin 1 binding to Bcl-xl / Bcl proteins: nutrient-rich medium, 4 hr. The source says: FIGS. 5A-5C. Characterization of proBeclin 1 compounds. […] Cells were maintained in nutrient-rich medium in the absence and presence of Bcl-targeted compounds for 4 hr. The cells were then solubilized, Beclin 1 complex immunoprecipitated, and the Beclin 1 hound proteins identified by Western blotting (FIG. 5C). The IgG-LC is the immunoglobin light chain of the anti-Beclin 1 antibody that was used to immunoprecipitate the complex.
Autophagy response can be observed by visualizing the punctuate pattern of GFP-LC3 indicative of the presence of autophagic vacuoles. We can also use tandem-labeled LC3, RFP-GFP-LC3 to better assess the dynamics of the autophagy response by visualizing both autophagosomes and autolysosomes (FIG. 4D-4F). […] Finally, we determine whether the compound interferes with Beclin 1 binding to Bcl-xl (FIG. 5C) and Bcl-2 as we would suspect if the compound acts through the intended novel mechanism of action.

The next series concerns protein degradation. Nature of the series: Protein degradation by pulse-chase methods using 14C-valine. The note with it: for Rates of protein degradation (FIG. 5B): 14C-valine pulse-chase, compared to a control compound, n=6; for Stimulate Protein Degradation: Table 1; for Proteolysis, bar coding of FIG. 5A: black bar stimulated, striped bar inhibited. The procedure:
as §1, §2

A further series concerns NeuT cells. On the procedure:
FIGS. 3A-3E. Effects of Bcl-XL targeted small compounds on the autophagy response and cell survival in NeuT cells. The positions of C4 in Site 1 (FIG. 3A), and C9 in Site 2 (FIG. 3B) of Bcl-xl are shown by in silico molecular docking. NeuT (Her2-positive breast cancer cell line) cells expressing GFP-LC3 were incubated in enriched (Fed) medium in the presence of C4 (FIG. 3C) and C9 (FIG. 3D) Bcl-targeted compounds. GFP-LC3 is found on autophagic vacuole that appear as dots (arrows). In FIG. 3E, the survival of NeuT cells was quantified after 20h of treatment with 0.1-1000 μM of Site 1 (C2 and C4) and Site 2 (C7 and C9) compounds.
Cell survival is suppressed by Bcl2-targeted compounds: Next, we examined the effects of the Bcl-xl targeted compounds C2, C4, C7, and C9 on autophagy and cell death in Her2/Neu-positive NeuT breast carcinoma cells (FIGS. 3A-E).

Entries after “also recorded” stand apart in the source; their conditions may differ. Where two headings read alike, the source gives them in different places.

In the case of `O=C1/C(=N\Nc2cc(Cl)ccc2O)C(S(=O)(=O)O)=Cc2cc(S(=O)(=O)O)cc(O)c21` [NSC100234, (3E)-3-[(5-chloro-2-hydroxyphenyl)hydrazinyleidene]-5-hydroxy-4-oxonapthalene-2,7-disulfonic acid], in series [1], the “Activate Autophagy Response” value is “Yes” and the “Enhancement of autophagy (GFP-LC3 at autophagic vacuoles)” value (from here on “Enhancement of autophagy”) is “stimulate autophagy”. For the same compound, in the series on Beclin 1/Bcl binding, the “Inhibit Beclin 1 Binding” value was “Yes” and the “Beclin 1 binding to Bcl-xl / Bcl proteins” value was “inhibiting Beclin 1 binding”. Also, in the series with protein degradation, the “Rates of protein degradation (FIG. 5B)” value was “stimulate” and the “Stimulate Protein Degradation” value is recorded as “Yes”.
Consider `OC(CCl)CN1CC[N+]2(CC1)CC[N+]1(CCN(CC(O)CCl)CC1)CC2.[Cl-].[Cl-]` (stereo not drawn) [NSC166100, 3,12-Bis(3-chloro-2-hydroxypropyl)-3,12-diaza-6,9-diazoniadispiro[5.2.5.2]hexadecane dichloride], for which, in series [1], the “Stimulation of autophagy compared with amino acid and serum starved cells (FIG. 2G)” value is listed as “promote autophagy”; the “Activate Autophagy Response” value was “Yes”; the Induction of autophagy result is recorded as “Induces”. Also, the “Inhibit Beclin 1 Binding” value in the series with Beclin 1/Bcl binding is “No”.
As for `Cl.NC(CSSCC(N)Cc1ccccc1)Cc1ccccc1` (stereo not drawn) [NSC656252], in series [1], the “Activate Autophagy Response” value is on record as “Yes” and the Induction of autophagy entry was “Induces autophagy”. Besides, the “Induction of cell death” value in the series on NeuT cells (Table 2, cells not given) is on record as “causes cell death”.
Turning to `CN(C)CCNNC1CCCN(C)C1` (stereo not drawn) [NSC21689], in series [1], the “Activate Autophagy Response” value was “Yes” and the “Enhancement of autophagy” value is “activate autophagy”. Besides, the “Inhibit Beclin 1 Binding” value in the series on Beclin 1/Bcl binding is given as “No”. Moreover, in the series on Beclin 1/Bcl binding (listed as Bx-16), the “Beclin 1 binding to Bcl-xl / Bcl proteins” value was “did not; also recorded: do not appear to affect Beclin 1 binding; also recorded: does not inhibit Beclin 1 binding as well as Bx-8”. In the series on protein degradation, the “Rates of protein degradation (FIG. 5B)” value is given as “activate” and the “Stimulate Protein Degradation” value is reported as “Yes”.
For the compound `C1CC2NCCC3NCCC(N1)N32` (stereo not drawn) [NSC81462, Dodecahydro-1,4,7,9b-tetraazaphenalene], in series [1], the “Activate Autophagy Response” value is given as “Yes” and the “Enhancement of autophagy” value was “stimulate autophagy”. In addition, the “Inhibit Beclin 1 Binding” value with Beclin 1/Bcl binding was “Yes”. Also, the “Beclin 1 binding to Bcl-xl / Bcl proteins” value with Beclin 1/Bcl binding (listed as Bx-8) is “inhibited Beclin 1 binding; also recorded: inhibiting Beclin 1 binding”. The “Rates of protein degradation (FIG. 5B)” value with protein degradation (listed as Bx-8) is “elevated; also recorded: stimulate”. For the same compound, in the series with protein degradation, the “Stimulate Protein Degradation” value is “Yes” and the “Proteolysis, bar coding of FIG. 5A” value is “stimulated proteolysis”.
Regarding `O=C(O)CCn1c(=O)[nH]c(=O)n(CCC(=O)O)c1=O` [NSC11693], in series [1], the “Activate Autophagy Response” value was “Yes” and the Induction of autophagy result was “NSC 11693 Induces autophagy; not tested for the induction of cell death”.
Consider `O=C(c1ccc(Cl)cc1)C(C(c1ccc([N+](=O)[O-])cc1)N1CCCCC1)N1CCCCC1` (stereo not drawn) [NSC150193, 1-(4-chlorophenyl)-3-(4-nitrophenyl)-2,3-di(piperidin-1-yl)propan-1-one], for which, in series [1], the “Activate Autophagy Response” value was “Yes”, the Induction of autophagy entry was “NSC 150193 Induces autophagy; not tested for the induction of cell death” and the “Enhancement of autophagy” value is on record as “stimulate autophagy”. In the series on Beclin 1/Bcl binding, the “Inhibit Beclin 1 Binding” value is “Yes” and the “Beclin 1 binding to Bcl-xl / Bcl proteins” value was “inhibiting Beclin 1 binding”. Besides, the “Rates of protein degradation (FIG. 5B)” value in the series on protein degradation (listed as B2-7) is “elevated; also recorded: stimulate”. For the same compound, in the series on protein degradation, the “Stimulate Protein Degradation” value was “Yes” and the “Proteolysis, bar coding of FIG. 5A” value was “stimulated proteolysis”.
For `CN1CCN(CCSC2Cc3cc(Cl)ccc3Sc3ccccc32)CC1` (stereo not drawn) [NSC635366], in series [1] (listed as C8), the “Stimulation of autophagy compared with amino acid and serum starved cells (FIG. 2G)” value was “promote autophagy; also recorded: stimulated autophagy to levels seen in amino acid and serum starved cells”; the “Enhancement of autophagy” value was “enhanced autophagy”. In series [1], the “Activate Autophagy Response” value is listed as “Yes” and the Induction of autophagy result was “Induces autophagy”. The “Enhancement of autophagy” value in series [1] (listed as Bx19) is “promote the accumulation of autophagic vacuoles”. For the same compound, in the series with protein degradation, the “Rates of protein degradation (FIG. 5B)” value is given as “inhibit protein degradation” and the “Stimulate Protein Degradation” value is recorded as “No”. The “Induction of cell death” value in the series with NeuT cells is “causes cell death”.
For `CC1CC(C)(C)NCCNC(C)CC(C)(C)NCCN1` (stereo not drawn) [NSC175445, 5,5,7,12,12,14-hexamethyl-1,4,8,11-tetrazacyclotetradecane], in series [1], the “Activate Autophagy Response” value is “Yes”, the Induction of autophagy result is recorded as “NSC 175445 Induces autophagy; not tested for the induction of cell death” and the “Enhancement of autophagy” value is on record as “stimulate autophagy”. Besides, in the series on Beclin 1/Bcl binding, the “Inhibit Beclin 1 Binding” value is reported as “Yes”. Besides, the “Beclin 1 binding to Bcl-xl / Bcl proteins” value in the series on Beclin 1/Bcl binding (listed as B2-11) was “inhibited Beclin 1 binding; also recorded: interfere with Beclin 1 binding”. For the same compound, the “Proteolysis, bar coding of FIG. 5A” value in the series with protein degradation is listed as “stimulated proteolysis”.
As for `CN(C)CC(CN1c2ccccc2Sc2ccccc21)N(C)C` (stereo not drawn) [NSC169468], in series [1], the “Stimulation of autophagy compared with amino acid and serum starved cells (FIG. 2G)” value is “stimulated autophagy to levels seen in amino acid and serum starved cells”; the “Activate Autophagy Response” value is on record as “Yes”; the Induction of autophagy entry is listed as “NSC 169468 Induces autophagy; not tested for the induction of cell death”.
For the compound `Clc1cc(Cl)c(C[N+]23CN4CN(CN(C4)C2)C3)cc1Cl.[Cl-]` [NSC155877, 3,5,7-Triaza-1-axoniaadamantane, 1-(2,4,5-trichlorobenzyl)-, chloride], the “Activate Autophagy Response” value in series [1] is listed as “Yes”. Besides, the “Inhibit Beclin 1 Binding” value with Beclin 1/Bcl binding was “No”.
On to `CC(=O)C1=C(O)C2(C)c3c(O)c(C)c(O)c(C(C)=O)c3OC2CC1=O` (stereo not drawn) [NSC280057], for which the “Stimulation of autophagy compared with amino acid and serum starved cells (FIG. 2G)” value in series [1] (listed as C10) is “promote autophagy; also recorded: stimulated autophagy to levels seen in amino acid and serum starved cells”. Moreover, in series [1], the “Activate Autophagy Response” value is reported as “Yes” and the Induction of autophagy result is reported as “Induces autophagy”. Moreover, the “Inhibit Beclin 1 Binding” value in the series on Beclin 1/Bcl binding was “No”. Also, the “Induction of cell death” value in the series with NeuT cells (Table 2, cells not given) is “causes cell death”.

The values above are taken from patent publication US20120141491A1, “METHODS AND COMPOSITIONS FOR THE TREATMENT OF CANCERS AND PATHOGENIC INFECTIONS” (priority 2009, published 2012).
